Assay results: patent US4528392A, “Aromatic compounds as antiallergic agents” (American Home Products Corporation, priority 1984, dated 1985)

Experiments:
[1] = tested on: synthesis of 5-HETE by rat glycogen-elicited polymorphonuclear leukocytes (lipoxygenase); assay: inhibition of 5-HETE synthesis by rat glycogen-elicited polymorphonuclear leukocytes; format: cell-based, rat (female Wistar); conditions: Leukocyte, read-out: 50% Inhibitory Concentration (IC50) 5-HETE; rat peritoneal PMN, A23187 10 μM, [14C]arachidonic acid, 10 min preincubation at 37° C.
Experimental: (§1) Roy. […] Med., 74, 831 (1981)]. […] The assay is carried out as follows: Peritoneal PMN are obtained from female Wistar rats (150-250 g) that received an i.p. injection of 6% glycogen (10 ml). After 24 hours, rats are killed by CO2 asphyxiation and peritoneal cells are harvested by peritoneal lavage using Ca^++ and Mg^++ free Hanks' balanced salt solution (HBSS). The peritoneal exudate is centrifuged at 400 g for 10 minutes. […] To 1 ml portions of cell suspension, test drugs or vehicle are added and incubated at 37° C. for 10 minutes. […] The reaction is stopped by the addition of ice cold water (3 ml) and acidifying to pH 3.5. Lipoxygenase products are then extracted twice into diethyl ether.

[2] = tested on: synthesis of LTB4 by rat glycogen-elicited polymorphonuclear leukocytes (lipoxygenase); assay: inhibition of LTB4 (5,12-diHETE) synthesis by rat glycogen-elicited polymorphonuclear leukocytes; format: cell-based, rat (female Wistar); conditions: Leukocyte, read-out: 50% Inhibitory Concentration (IC50) LTB4; rat peritoneal PMN, A23187 10 μM, [14C]arachidonic acid, 10 min preincubation at 37° C.
Experimental: as §1

[3] = tested on: LTD4 induced bronchoconstriction; assay: in vivo inhibition of bronchospasm induced in guinea pigs by exogenously administered leukotriene (LTD4); parameters: species or system guinea pig (male Hartley); conditions: 50 mg/kg intraduodenal, 10 minutes before induction of bronchospasm by LTD4
Experimental: The assay of this Example measures the in vivo ability of the compounds of the invention to inhibit the bronchospasm induced in guinea pigs by the exogenously administered leukotrienes C4 and/or D4. This assay is essentially a measure of the SRS-A antagonist properties of the compounds tested.
This assay is carried out as follows:
Male Hartley strain guinea pigs (350-600 g) are anesthetized with pentobarbital sodium (50 mg/kg, i.p.). The jugular vein is cannulated for injection of drugs and the carotid artery for monitoring blood pressure. The trachea is cannulated for artificial ventilation by a miniature Starling pump and for indirect measurement of respiratory volume changes as described infra. Additional pentobarbital sodium (15 mg/kg, i.v.) is administered to arrest spontaneous respiration. Submaximal bronchoconstrictor responses are established in control animals by varying the dose-levels of leukotriene. Intravenous dose-levels for LTC4 range from 1 to 2 μg/kg and for LTD4 the range is from 0.3 to 1 μg/kg. The aerosol bronchoprovocation dose for LTC4 is generated from 1.6 μM solution and for LTD4 from a 2.0 μM solution.
Test drugs are administered either intravenously, intraduodenally, by aerosol or orally at 1 or 10 minutes before induction of bronchospasm by administration of either LTC4 or LTD4 at the predetermined dose-levels. Aerosols of soluble drugs or leukotrienes are produced in-line for 10 seconds only by actuation of an ultrasonic nebulizer (Monaghan). Aerosolized drug dosage is expressed in terms of solution concentration and by a fixed aerosol exposure time (approximately 10 seconds). Control animals receive saline in place of drug.
Respiratory volume changes are determined by a calibrated piston whose travel is recorded, via a linear transducer, on a Beckman Dynograph recorder. Maximal bronchoconstrictor volume is determined by clamping off the trachea at the end of the experiment. Overflow volumes at 1, 3 and 5 minutes are obtained from the recorded charts.
The overflow volume at 1, 3 and 5 minutes is expressed as a percentage of maximal bronchoconstriction. […]

[4] = tested on: ovalbumin induced bronchospasm mediated by endogenous products of the lipoxygenase oxidation of arachidonic acid; assay: in vivo inhibition of ovalbumin induced bronchospasm in guinea pigs by endogenous mediators; parameters: species or system guinea pig (male Hartley); conditions: 50 mg/kg intraduodenal, 10 minutes before ovalbumin challenge, indomethacin and chlorpheniramine pretreated
Experimental: The assay of this Example measures the in vivo ability of the compounds of the invention to inhibit the bronchospasm induced in guinea pigs by endogenous mediators of the bronchoconstriction.
The assay is carried out as follows:
Male Hartley strain guinea pigs weighing 350-600 g are sensitized to ovalbumin (OA) (5 mg i.p. and 5 mg s.c.) on day 0. Three to five weeks later, the animals are anesthetized with pentobarbital sodium (50 mg/kg, i.p.). The jugular vein is cannulated for injection of drugs and the carotid artery for monitoring blood pressure. The trachea is cannulated for artificial ventilation by miniature Staring pump and for indirect measurement of respiratory volume changes as described, infra. Additional pentobarbital sodium (15 mg/kg, i.v.) is administered to arrest spontaneous respiration. A cyclooxygenase inhibitor, indomethacin (10 mg/kg in tris buffer, i.v. at 9 min.) is administered to shunt arachidonic metabolism to lipoxygenase pathways. One minute later, chlorpheniramine (1.0 mg/kg in saline, i.v.) is given to attenuate the histaminic component of anaphylactic bronchoconstriction. Test drugs are administered either intravenously, intraduodenally or by aerosol at 2 or 10 minutes before antigen challenge. Anaphylactic bronchoconstriction is induced by administration of aerosolized OA (1%). Aerosols of OA or soluble drug are produced in-line for 10 seconds only by actuation of an ultrasonic nebulizer (Monaghan). Aerosolized drug dosage is expressed in terms of solution concentration and by a fixed aerosol exposure time (approximately10 seconds). Control animals receive saline in place of drug.
Respiratory volume changes are determined by a calibrated piston whose travel is recorded, via a linear transducer, on a Beckman Dynograph recorder. Maximal bronchoconstrictor volume is determined by clamping off the trachea at the end of the experiment. Overflow volumes at minutes 1, 3 and 5 are obtained from the recorded charts.
The overflow volume at 1, 3 and 5 minutes is expressed as a percentage of maximal bronchoconstriction. Combined group values are used from each of these time intervals to determine the inhibitory effect of drugs. [formula] Students t-test for unpaired data is used to determine statistical significance. Dose response curves are generated and ED50 doses are interpolated from the regression lines.
The results for three compounds of the invention, with administration of the compounds at 10 minutes before ovalbumin challenge are presented below: […]

SMILES	IC50 [1] [µM]	IC50 [2] [µM]	% Inhibition Overflow Volume at 1 min. ([3]; 1 min.) [%]	% Inhibition Overflow Volume at 3 min. ([3]; 3 min.) [%]	% Inhibition Overflow Volume at 5 min. ([3]; 5 min.) [%]	% Inhibition Overflow Volume at 1 min. [4] [%]	% Inhibition Overflow Volume at 3 min. [4] [%]	% Inhibition Overflow Volume at 5 min. [4] [%]
NC1=NN(c2cccc(C(F)(F)F)c2)CC1 [BW755C, reference compound]	43	30	–	–	–	–	–	–
COC(=O)CC(=O)Nc1cccc(COc2ccc(C(C)=O)c(O)c2)c1 [Example 1, 3-[[3-[(4-acetyl-3-hydroxyphenoxy)methyl]phenyl]amino]-3-oxopropanoic acid, methyl ester]	14.2	11.7	25	48	56	99	77	63
COC(=O)CCC(=O)Nc1cccc(COc2ccc(C(C)=O)c(O)c2)c1 [Example 2, 4-[[3-[(4-acetyl-3-hydroxyphenoxy)methyl]phenyl]amino]-4-oxobutanoic acid, methyl ester]	–	–	–	–	–	93	24	35
COC(=O)CC(=O)Nc1cccc(COc2ccc(C(C)=O)c(OC)c2)c1 [Example 4, 3-[[3-[(4-acetyl-3-methoxyphenoxy)methyl]phenyl]amino]-3-oxopropanoic acid, methyl ester]	–	–	–	–	–	88	67	46
CCCCCC(=O)c1ccc(OCc2cccc(NC(=O)CCC(=O)OC)c2)cc1OC [Example 6c, 4-[[3-[[3-methoxy-4-(1-oxohexyl)phenoxy]methyl]phenyl]amino]-4-oxobutanoicacid, methyl ester]	3.71	3.87	–	–	–	–	–	–
CCc1ccc(OCc2cccc(NC(=O)CCC(=O)OC)c2)cc1OC [Example 7, 4-[[3-[(4-ethyl-3-methoxyphenoxy)methyl]phenyl]amino]-4-oxobutanoic acid, methyl ester]	5.6	7.09	–	–	–	–	–	–
CCCCCCc1ccc(OCc2cccc(NC(=O)CC(=O)OC)c2)cc1OC [Example 8b, 3-[[3-[(4-hexyl-3-methoxyphenoxy)methyl]phenyl]amino]-3-oxopropanoic acid, methyl ester]	1.59	1.7	–	–	–	–	–	–
